Test results: the supplement of paper PMC5908809

Assays:
[1] = system: normal NK cells expanded with K562-aAPC; test: drug sensitivity score (DSS) (DSS units); higher = more sensitive; extreme values may be limits of the assay; conditions: 72 h; IL-2 2.5 ng/mL
Experimental: (§1)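 Drug sensitivity and resistance testing on K562-aAPC-expanded normal NK cells: 5 concentrations (10-fold steps over a 10,000-fold range), 72 h at 37 °C, viability by CellTiter-Glo normalised to DMSO and benzethonium chloride controls; DSS from the fitted curve.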

DERL-7 (IL-2 2.5 ng/mL) [2] = test: percent inhibition of viability; higher = more inhibition; conditions: 72 h
[3] = system: normal primary NK cells, pool 1 (3 donors), resting (IL-2 0 ng/mL); test: as above; conditions: 72 h
KHYG-1 (IL-2 2.5 ng/mL) [4] = test: as above; conditions: 72 h
[5] = system: normal primary NK cells, pool 3 (3 donors) (IL-2 2.5 ng/mL); test: as above; conditions: 72 h
NKL (IL-2 2.5 ng/mL) [6] = test: as above; conditions: 72 h
SNK-6 (IL-2 2.5 ng/mL) [7] = test: as above; conditions: 72 h
NK-92 (IL-2 2.5 ng/mL) [8] = test: as above; conditions: 72 h
IMC-1 (IL-2 20 ng/mL) [9] = test: as above; conditions: 72 h
[10] = system: normal primary NK cells, pool 2 (3 donors) (IL-2 2.5 ng/mL); test: as above; conditions: 72 h
NK-YS (IL-2 2.5 ng/mL) [11] = test: as above; conditions: 72 h
[12] = system: normal primary NK cells, pool 1 (3 donors) (IL-2 2.5 ng/mL); test: as above; conditions: 72 h
YT (IL-2 2.5 ng/mL) [13] = test: as above; conditions: 72 h
KAI3 (IL-2 2.5 ng/mL) [14] = test: as above; conditions: 72 h
DERL-7 (IL-2 2.5 ng/mL) [15] = test: drug sensitivity score (DSS) (DSS units); higher = more sensitive; extreme values may be limits of the assay; conditions: 72 h
[16] = system: normal primary NK cells, pool 1 (3 donors), resting (IL-2 0 ng/mL); test: as above; conditions: 72 h
KHYG-1 (IL-2 2.5 ng/mL) [17] = test: as above; conditions: 72 h
[18] = system: normal primary NK cells, pool 3 (3 donors) (IL-2 2.5 ng/mL); test: as above; conditions: 72 h
NKL (IL-2 2.5 ng/mL) [19] = test: as above; conditions: 72 h
SNK-6 (IL-2 2.5 ng/mL) [20] = test: as above; conditions: 72 h
NK-92 (IL-2 2.5 ng/mL) [21] = test: as above; conditions: 72 h
IMC-1 (IL-2 20 ng/mL) [22] = test: as above; conditions: 72 h
[23] = system: normal primary NK cells, pool 2 (3 donors) (IL-2 2.5 ng/mL); test: as above; conditions: 72 h
NK-YS (IL-2 2.5 ng/mL) [24] = test: as above; conditions: 72 h
[25] = system: normal primary NK cells, pool 1 (3 donors) (IL-2 2.5 ng/mL); test: as above; conditions: 72 h
YT (IL-2 2.5 ng/mL) [26] = test: as above; conditions: 72 h
KAI3 (IL-2 2.5 ng/mL) [27] = test: as above; conditions: 72 h
[28] = system: normal NK cells expanded with K562-aAPC; test: percent inhibition of viability; higher = more inhibition; conditions: 72 h, IL-2 2.5 ng/mL
Experimental: as §1

CNC(=O)c1cc(Oc2ccc(NC(=O)Nc3ccc(Cl)c(C(F)(F)F)c3)cc2)ccn1 [Sorafenib] (max concentration tested 1000 nM)
Conditions | drug sensitivity score
DERL-7 (IL-2 2.5 ng/mL) [15] | 1.11
IMC-1 (IL-2 20 ng/mL) [22] | 0
KAI3 (IL-2 2.5 ng/mL) [27] | 0
KHYG-1 (IL-2 2.5 ng/mL) [17] | 0
NK-92 (IL-2 2.5 ng/mL) [21] | 0.73
NK-YS (IL-2 2.5 ng/mL) [24] | 0
NKL (IL-2 2.5 ng/mL) [19] | 0
SNK-6 (IL-2 2.5 ng/mL) [20] | 3.94
YT (IL-2 2.5 ng/mL) [26] | 0
[1] | 0
[16] | 1.53
[18] | 0
[23] | 0
[25] | 0

percent inhibition of viability [%]
Conditions | 0.1 nM | 1 nM | 10 nM | 100 nM | 1000 nM
DERL-7 (IL-2 2.5 ng/mL) [2] | -14.3 | 2.59 | 4.15 | 1.1 | 25.2
IMC-1 (IL-2 20 ng/mL) [9] | -6.25 | -2.7 | -8.4 | -3.64 | -1.65
KAI3 (IL-2 2.5 ng/mL) [14] | 2.87 | 5.97 | 0.72 | 2.84 | -4.41
KHYG-1 (IL-2 2.5 ng/mL) [4] | -1.09 | 0 | -1.1 | 2.71 | -0.82
NK-92 (IL-2 2.5 ng/mL) [8] | -2.2 | -1.4 | -3.13 | -5.91 | 25.7
NK-YS (IL-2 2.5 ng/mL) [11] | -0.65 | -1.62 | -0.99 | 3.14 | 5.95
NKL (IL-2 2.5 ng/mL) [6] | -18.1 | -17.9 | -14.8 | -9.31 | -11.3
SNK-6 (IL-2 2.5 ng/mL) [7] | 9.25 | 14.7 | 5.19 | 17.7 | 30.7
YT (IL-2 2.5 ng/mL) [13] | -0.23 | -2.47 | 0.91 | 1.22 | 3.17
[3] | -6.78 | -15.6 | 0.71 | 9.47 | 20.5
[5] | -4.53 | -9.01 | -3.28 | -8.55 | -2.67
[10] | -8.52 | -3.3 | -11.4 | -7 | -14.1
[12] | -10 | -8.22 | -3.22 | -10.4 | -2.85
[28] | -0.62 | -4.84 | 0.63 | -4.73 | -7.05

S=C(NCc1ccc2c(c1)OCO2)N1CCN(c2ncnc3c2oc2ccccc23)CC1 [Amuvatinib] (max concentration tested 10000 nM)
Conditions | drug sensitivity score
DERL-7 (IL-2 2.5 ng/mL) [15] | 12.9
IMC-1 (IL-2 20 ng/mL) [22] | 7.59
KAI3 (IL-2 2.5 ng/mL) [27] | 4.97
KHYG-1 (IL-2 2.5 ng/mL) [17] | 7.56
NK-92 (IL-2 2.5 ng/mL) [21] | 8.04
NK-YS (IL-2 2.5 ng/mL) [24] | 7.16
NKL (IL-2 2.5 ng/mL) [19] | 11.7
SNK-6 (IL-2 2.5 ng/mL) [20] | 9.4
YT (IL-2 2.5 ng/mL) [26] | 4.88
[1] | 0.55
[16] | 8.27
[18] | 5.25
[23] | 5.67
[25] | 7.49

percent inhibition of viability [%]
Conditions | 1 nM | 10 nM | 100 nM | 1000 nM | 10000 nM
DERL-7 (IL-2 2.5 ng/mL) [2] | 0.19 | 2.67 | 18 | 55.9 | 90.5
IMC-1 (IL-2 20 ng/mL) [9] | -1.71 | -0.29 | 1.01 | 41.2 | 44.1
KAI3 (IL-2 2.5 ng/mL) [14] | 3.55 | -2.41 | 7.21 | 17.6 | 54.5
KHYG-1 (IL-2 2.5 ng/mL) [4] | -5.63 | -5.61 | -1.04 | 24.3 | 73.6
NK-92 (IL-2 2.5 ng/mL) [8] | -8.12 | -11.4 | -3.54 | 36.4 | 65.1
NK-YS (IL-2 2.5 ng/mL) [11] | -2.83 | -6.84 | -2.71 | 12.6 | 91
NKL (IL-2 2.5 ng/mL) [6] | -10.5 | -7.21 | 6.91 | 53.6 | 95
SNK-6 (IL-2 2.5 ng/mL) [7] | 13.3 | -6.01 | 16.5 | 40.9 | 60.9
YT (IL-2 2.5 ng/mL) [13] | -2.59 | -1.83 | 3.31 | 19.5 | 49.5
[3] | 7.55 | 15.6 | 5.58 | 28.6 | 83.9
[5] | -1.07 | 8.45 | 6.14 | 11.8 | 60.8
[10] | -4.53 | 2.76 | 7.13 | 11.1 | 69.2
[12] | -0.46 | 10.3 | 3.46 | 19.5 | 80.3
[28] | -2.56 | -1.86 | -4.91 | 0.6 | 18.6
